Reference: patent US9428753B2, “Use of LXR antagonists for treatment of side effects of elevated glucocorticoid levels” (The Governing Council of the University of Toronto, priority 2013, dated 2016)
“Also recorded” adds a separate entry of the source.

Assays:
LXRα−/− mice = assay: In vivo pilot study: T09 with GSK2033, liver LXR target genes
GR [1] = target: T1, GR (Homo sapiens, UniProt P04150); assay: GAL4-GR / UAS-luc co-transfection reporter assay in HEK293 cells; type: cell-based; design: co-transfecting UAS-reporter and GAL4-LBD of the nuclear receptors LXRα, LXRβ and GR; GAL4 (fusion partner); expressed in transfected cells; host or cells: HEK293 cells; mouse primary hepatocytes
T1 sequence (P04150 524-758 limits assumed): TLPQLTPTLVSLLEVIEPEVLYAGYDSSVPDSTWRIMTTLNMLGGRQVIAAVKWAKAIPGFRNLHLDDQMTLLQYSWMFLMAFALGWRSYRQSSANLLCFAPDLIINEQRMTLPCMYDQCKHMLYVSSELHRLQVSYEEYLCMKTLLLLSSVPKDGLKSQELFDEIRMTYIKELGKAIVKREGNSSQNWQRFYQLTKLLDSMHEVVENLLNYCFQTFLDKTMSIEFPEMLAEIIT
Experimental: (§1) RLU=relative luciferase units.
as §1
Further experiments were then carried out to determine the inhibitory potencies for the individual LXR isoforms in HEK 293 cells by co-transfecting UAS-reporter and GAL4-LBD of the nuclear receptors LXRα, LXRβ and GR and then treating with 8 different concentrations of GSK2033. To assess suppression of ligand activated receptors, the transfected cells were co-treated with increasing doses of GSK2033, in addition to T09091317 or Dex (dexamethasone) (at EC80 of LXR isoforms and GR, respectively).
A number of experiments were carried out to determine the relative inhibitory potencies of GSK2033, Amgen 54 and DMHCl for the individual LXR isoforms in HEK 293 cells by co-transfecting UAS-reporter and GAL4-LBD of the nuclear receptors LXRα, LXRβ and GR and then treating with 6 different concentrations of GSK2033, Amgen 54 and DMHCl. To assess suppression of ligand activated receptors, the transfected cells were co-treated with increasing doses of GSK2033, Amgen 54 and DMHCl, in addition to T09091317 or Dex (at EC80 of LXR isoforms and GR, respectively).

GILZ = GILZ gene expression in LPS activated mouse primary macrophages (RT-QPCR); type: cell-based; details: 100 nM Dex + 10 μM GSK2033, 18 hrs
Experimental: (§2) The expression of genes involved in immune response IL-1β, IL-6 and GILZ was measured following an overnight treatment with Dex 100 nM, 250 nM T0901317 (T09), and/or 10 μM GSK2033 in LPS activated WT, LXR α −/− and LXRβ −/− mouse primary macrophages, by RT-QPCR. Data represent the Avg±SD, N=3. *P<0.05 by One way ANOVA, Student Newman Keuls.
(§3) To assess the ability of GSK2033 to affect GR-mediated inflammatory suppression, a number of gene expression studies were conducted on primary macrophages isolated from WT, LXRα−/− and LXRβ−/− mice. Cells were pre-treated with 10 ng/ml lipopolysaccharide (LPS) for 6 hrs (to induce a potent inflammatory response) followed by treatment of 100 nM Dex, 10 μM GSK2033 and/or 250 nM T09 for 18 hrs.

LXRα = target: T2, LXRα (Homo sapiens, UniProt Q13133); assay: GAL4-LXRα / UAS-luc transfection assay in mouse primary hepatocytes
T2 sequence (Q13133 209-447 limits assumed): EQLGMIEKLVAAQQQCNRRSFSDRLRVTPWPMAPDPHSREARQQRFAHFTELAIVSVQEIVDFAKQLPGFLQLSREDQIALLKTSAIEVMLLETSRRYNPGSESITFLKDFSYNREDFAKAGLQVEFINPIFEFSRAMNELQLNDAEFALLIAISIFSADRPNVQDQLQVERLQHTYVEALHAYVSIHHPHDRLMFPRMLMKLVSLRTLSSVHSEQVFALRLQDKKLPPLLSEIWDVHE

[2] = test system: tyrosine aminotransferase (TAT); assay: TAT gene expression in mouse primary hepatocytes; type: cell-based; details: WT, LXRα−/− and LXRβ−/− hepatocytes; 100 nM Dex + 10 μM GSK2033
Experimental: T09 treatment was used as a positive control for LXR activity. (D) Glucose output over 24 hrs from LXRα−/− and LXRβ−/− mouse primary hepatocytes following Dex 100 nM±10 μM GSK2033 treatment. (E) Glucose output over 8 hrs from WT hepatocytes following Dex 500 nM±10 μM GSK2033 treatments. […] Legend: V=vehicle, G=GSK2033 (LXR antagonist); D=dexamethasone (GR agonist); and T09=T0901317 (LXR agonist).

G6Pc = G6Pc gene expression in mouse primary hepatocytes; details: LXRα−/− hepatocytes
IL-6 = IL-6 gene expression in LPS activated mouse primary macrophages (RT-QPCR); type: cell-based
Experimental: as §2, §3

IL-1β = IL-1β gene expression in LPS activated mouse primary macrophages (RT-QPCR); type: cell-based
Experimental: as §2, §3

Pepck = Pepck gene expression in mouse primary hepatocytes; type: cell-based
GR [3] = target: T1, GR; assay: GAL4-GR / UAS-luc transfection assay in mouse primary hepatocytes; type: cell-based; design: co-transfecting UAS-reporter and GAL4-LBD of the nuclear receptors LXRα, LXRβ and GR; GAL4 (fusion partner); expressed in transfected cells; host or cells: mouse primary hepatocytes; details: GAL4-GR activated with 100 nM Dex
Excerpt: as §1

[4] = T09 5 mg/kg i.p. + GSK2033 20 or 40 mg/kg i.p.
[5] = LPS activated macrophages, 250 nM T09 + 10 μM GSK2033
[6] = WT, LXRα−/− and LXRβ−/− macrophages, LPS 10 ng/ml 6 hrs, 100 nM Dex + 10 μM GSK2033, 18 hrs

SMILES: Cc1cc(C)c(S(=O)(=O)N(Cc2ccc(-c3cccc(S(C)(=O)=O)c3)cc2)Cc2ccc(C(F)(F)F)o2)c(C)c1 [GSK2033, 2,4,6-trimethyl-N-((3′-(methylsulfonyl)-[1,1′-biphenyl]-4-yl)methyl)-N-((5-(trifluoromethyl)furan-2-yl)methyl)benzenesulfonamide]
- liver ABCG5 activation by T09 (LXRα−/− mice; [4]): dose dependent inhibition; also recorded: dose dependent repression
- liver ABCG8 activation by T09 (LXRα−/− mice; [4]): dose dependent inhibition; also recorded: dose dependent repression
- toxicity (LXRα−/− mice; higher dose of GSK2033 (40 mg/kg)): no toxicity
- Dex induced GR activity (GR [1]; Example 1, GAL4-GR activated with 100 nM Dex): unaffected; also recorded: did not antagonize
- Dex induced GR activity (GR [1]; Example 7, 100 nM Dex): unaffected; also recorded: did not antagonize
- GR-mediated induction of GILZ under GSK2033 co-treatment (GILZ): unaffected
- right-shift of LXRα IC50, primary hepatocytes vs HEK293 (LXRα): ~10 fold
- Dex induction of TAT under GSK2033 co-treatment [2]: not altered
- G6Pc expression (G6Pc; Example 6, 100 nM Dex + 10 μM GSK2033): 4.9 fold
- G6Pc expression (G6Pc; Example 6, 10 μM Cortisol + 10 μM GSK2033): 7.5 fold
- G6Pc expression (G6Pc; Example 6, 10 μM Prednisone + 10 μM GSK2033): 9.8 fold
- G6Pc expression (G6Pc; Example 6, 10 μM Triamcinolone acetonide + 10 μM GSK2033): 8.6 fold
- G6Pc expression (G6Pc; Example 8, 100 nM Dex + 10 μM LXR antagonist): 5.3 fold
- T09 mediated suppression of IL-6 under GSK2033 co-treatment (IL-6; [5]): antagonized
- Dex-mediated IL-6 repression under GSK2033 co-treatment (IL-6; [6]): unaffected
- T09 mediated suppression of IL-1β under GSK2033 co-treatment (IL-1β; [5]): antagonized
- Dex-mediated IL-1β repression under GSK2033 co-treatment (IL-1β; [6]): unaffected
- Pepck expression (Pepck; Example 3, LXRα−/− hepatocytes, 100 nM Dex + 10 μM GSK2033): 3.2 fold
- Pepck expression (Pepck; Example 3, LXRβ−/− hepatocytes, 100 nM Dex + 10 μM GSK2033): remained unchanged
- Pepck expression (Pepck; Example 3, WT hepatocytes, 100 nM Dex + 10 μM GSK2033): 1.9 fold
- Pepck expression (Pepck; Example 6, LXRα−/− hepatocytes, 100 nM Dex + 10 μM GSK2033): 0.8 fold
- Pepck expression (Pepck; Example 6, LXRα−/− hepatocytes, 10 μM Cortisol + 10 μM GSK2033): 1.7 fold
- Pepck expression (Pepck; Example 6, LXRα−/− hepatocytes, 10 μM Prednisone + 10 μM GSK2033): 1.24 fold
- Pepck expression (Pepck; Example 6, LXRα−/− hepatocytes, 10 μM Triamcinolone acetonide + 10 μM GSK2033): 0.6 fold
- Pepck expression (Pepck; Example 8, LXRα−/− hepatocytes, 100 nM Dex + 10 μM LXR antagonist): 2.7 fold
- GR activity (GR [3]): unaffected; also recorded: did not antagonize
